In brackets after ≈: the same amount, converted by molar mass. Counter-ions that a name gives are not always drawn. Like-named read-outs stand apart in the source and are kept apart here.
What was measured:
[1] = system: Pseudomonas aeruginosa V-1; assay: In vitro antibacterial activity, MIC (standard strain); assay type: cell-based; conditions: V1; Pseudomonas aeruginosa V-1; 10^6 cells/ml; standard strain; read-out: MIC
[2] = system: Enterobacter cloacae IID 977; assay: as above; assay type: cell-based; conditions: Enterobacter cloacae, IID977, Enterobacter cloacae IID 977; 10^6 cells/ml; standard strain; read-out: MIC
[3] = system: S. aureus IID 670 (Terajima); assay: as above; assay type: cell-based, Staphylococcus aureus; conditions: Staphylococcus aureus, IID670, S. aureus IID 670 (Terajima); 10^6 cells/ml; standard strain; read-out: MIC
S. agalactiae 4468 = assay: In vitro antibacterial activity, MIC (clinical isolates); assay type: cell-based; conditions: Streptococcus agalactiae; S. agalactiae 4468; 10^6 cells/ml; clinical isolate; read-out: MIC
[4] = system: Bacteroides fragilis GM 7000; assay: In vitro antibacterial activity, MIC (standard strain); assay type: cell-based; conditions: GM7000; Bacteroides fragilis GM 7000; 10^6 cells/ml; standard strain; read-out: MIC
[5] = system: Clostridium perfringens KYA 13123; assay: microbe, parasite or virus in culture; assay type: cell-based; conditions: KYA13123
[6] = system: Escherichia coli NIHJ JC-2; assay: In vitro antibacterial activity, MIC (standard strain); assay type: cell-based; conditions: Escherichia coli, NIHJJC2, Escherichia coli NIHJ JC-2; 10^6 cells/ml; standard strain; read-out: MIC
[7] = system: Salmonella entritidis IID 604; assay: as above; assay type: cell-based; conditions: IID604; Salmonella entritidis IID 604; 10^6 cells/ml; standard strain; read-out: MIC
S. agalactiae 4049 = assay: In vitro antibacterial activity, MIC (clinical isolates); assay type: cell-based; conditions: Streptococcus agalactiae; S. agalactiae 4049; 10^6 cells/ml; clinical isolate; read-out: MIC
S. pneumoniae IID 552 = assay: In vitro antibacterial activity, MIC (standard strain); assay type: cell-based; conditions: Streptococcus pneumoniae, IID552; S. pneumoniae IID 552; 10^6 cells/ml; standard strain; read-out: MIC
S. faecalis 401 = assay: In vitro antibacterial activity, MIC (clinical isolates); assay type: cell-based; conditions: Enterococcus faecalis; S. faecalis 401; 10^6 cells/ml; clinical isolate; read-out: MIC
[8] = system: Streptococcus pyogenes S-8; assay: In vitro antibacterial activity, MIC (standard strain); assay type: cell-based; conditions: S8
S. pyogenes IID 692 = assay: as above; assay type: cell-based; conditions: Streptococcus pyogenes, IID692; S. pyogenes IID 692; 10^6 cells/ml; standard strain; read-out: MIC
S. pneumoniae 3227 = assay: In vitro antibacterial activity, MIC (clinical isolates); assay type: cell-based; conditions: Streptococcus pneumoniae
S. faecalis 402 = assay: as above; assay type: cell-based; conditions: Enterococcus faecalis; S. faecalis 402; 10^6 cells/ml; clinical isolate; read-out: MIC
E. coli ATCC 10536 = assay: In vitro antibacterial activity, MIC (standard strain); assay type: cell-based; conditions: Escherichia coli, ATCC10536; E. coli ATCC 10536; 10^6 cells/ml; standard strain; read-out: MIC
[9] = system: Morganella morganii IID 602; assay: as above; assay type: cell-based; conditions: IID602; Morganella morganii IID 602; 10^6 cells/ml; standard strain; read-out: MIC
[10] = system: Fusobacterium varium KYA 8501; assay: as above; assay type: cell-based; conditions: Fusobacterium varium, KYA8501, Fusobacterium varium KYA 8501; 10^6 cells/ml; standard strain; read-out: MIC
S. aureus Smith = assay: In vivo antibacterial activity against systemic infection in mice; parameters: species or system mice (ICR-S); conditions: Staphylococcus aureus, po, mice (ICR-S), an hour after intraperitoneal infection
Experimental: (§1) Experiment-2 In vivo antibacterial activity against systemic infection in mice (ICR-S)
(§2) The infections were produced by intraperitoneal injection of a suspension of the bacterial culture corresponding to the germ studied. The products were administered orally at an hour after the infection.

[11] = system: Staphylococcus aureus 209 P; assay: In vitro antibacterial activity, MIC (standard strain); assay type: cell-based; conditions: Staphylococcus aureus 209 P; 10^6 cells/ml; standard strain; read-out: MIC
Shigella sonnei IID 969 = assay: as above; assay type: cell-based; conditions: IID969, 10^6 cells/ml
Experimental: Experiment-1 In vitro antibacterial activity
The in vitro antibacterial activity against gram-positive and gram-negative bacteria has been investivated.
The minimum inhibitory concentration (MIC) was determined in accordance with the method recommended by Japan Society of Chemotherapy.

P. mirabilis IID 994 = assay: as above; assay type: cell-based; conditions: Proteus mirabilis, IID994; P. mirabilis IID 994; 10^6 cells/ml; standard strain; read-out: MIC
P. aeruginosa IID 1210 = assay: as above; assay type: cell-based; conditions: Pseudomonas aeruginosa, IID1210; P. aeruginosa IID 1210; 10^6 cells/ml; standard strain; read-out: MIC
[12] = system: Bacillus subtilis PCI 219; assay: as above; assay type: cell-based; conditions: PCI219
B. fragilis 0558 = assay: as above; assay type: cell-based, Bacteroides fragilis; conditions: Bacteroides fragilis, 0558, B. fragilis 0558; 10^6 cells/ml; standard strain; read-out: MIC
M. pneumoniae Mac. = assay: In vitro antibacterial activity against Mycoplasma, MIC; assay type: cell-based; conditions: Mycoplasmoides pneumoniae, 120 h; M. pneumoniae Mac.; no visible growth after incubation for 5 days; read-out: MIC
Description: Experiment-3 In vitro antibacterial activity against Mycoplasma

E. coli ML4707 = assay: In vivo antibacterial activity against systemic infection in mice; parameters: species or system mice (ICR-S); conditions: for ED50: Escherichia coli, ML4707, mice (ICR-S), oral, an hour after intraperitoneal infection, challenge dose 2.7 x 10^6 ~ 8.8 x 10^6 cfu/mouse, read-out: ED50 E. coli ML4707
Experimental: as §1, §2

[13] = Streptococcus pyogenes S-8, 10^6 cells/ml, standard strain, read-out: MIC
[14] = S. pneumoniae 3227, 10^6 cells/ml, clinical isolate, read-out: MIC
[15] = Bacillus subtilis PCI 219, 10^6 cells/ml, standard strain, read-out: MIC
[16] = challenge dose 6.0 x 10^5 cfu/mouse, read-out: ED50 S. aureus Smith

Row | SMILES | MIC [1] [µg/mL] | MIC [2] [µg/mL] | MIC [3] [µg/mL] | MIC (S. agalactiae 4468) [µg/mL] | MIC [4] [µg/mL] | MIC [5] [µg/mL] | MIC [6] [µg/mL] | MIC [7] [µg/mL] | MIC (S. agalactiae 4049) [µg/mL] | MIC (S. pneumoniae IID 552) [µg/mL] | MIC (S. faecalis 401) [µg/mL] | MIC (S. pyogenes IID 692) [µg/mL] | MIC (S. faecalis 402) [µg/mL] | MIC (E. coli ATCC 10536) [µg/mL] | MIC [9] [µg/mL] | MIC [10] [µg/mL] | MIC [11] [µg/mL] | MIC (Shigella sonnei IID 969) [µg/mL] | MIC (P. mirabilis IID 994) [µg/mL] | MIC (P. aeruginosa IID 1210) [µg/mL] | other results
1 | NCC1CCN(c2c(F)cc3c(=O)c(C(=O)O)cn(C4CC4)c3c2F)C1 (stereo not drawn) [Example 1, 7-(3-Aminomethyl-l-pyrrolidinyl)-l-cyclopropyl-6,8-difluoro-1,4-dihydro-4-oxo-3-quinolinecarboxylic acid hydrochloride] | 0.39 | 0.1 | 0.05 | 0.05 | 0.78 | 0.39 | 0.025 | 0.05 | 0.05 | 0.05 | 0.1 | 0.05 | 0.1 | 0.025 | 0.1 | 0.78 | 0.05 | 0.025 | 0.05 | 0.78 | MIC [8, 13]: 0.05 µg/mL; MIC (S. pneumoniae 3227; [14]): 0.05 µg/mL; ED50 (S. aureus Smith; challenge dose 7 x 10^5 cfu/mouse, n=5, read-out: ED50 against S. aureus Smith): 0.9 mg/kg; MIC [12, 15]: 0.025 µg/mL; MIC (B. fragilis 0558): 0.39 µg/mL
2 | CCNCC1CCN(c2c(F)cc3c(=O)c(C(=O)O)cn(C4CC4)c3c2F)C1 (stereo not drawn) [Example 2, l-Cyclopropyl-7-(3-ethylaminomethyl-l-pyrrolidinyl)-6,8-difluoro-l,4-dihydro-4-oxo-3-quinolinecarboxylic acid hydrochloride] | 0.78 | 0.1 | 0.025 | 0.1 | 1.56 | 0.39 | 0.025 | 0.05 | 0.1 | 0.1 | 0.2 | 0.2 | 0.2 | 0.025 | 0.1 | 1.56 | 0.025 | 0.025 | 0.05 | 3.13 | MIC (M. pneumoniae Mac.): 0.05 µg/mL; MIC [8, 13]: 0.1 µg/mL; MIC (S. pneumoniae 3227; [14]): 0.1 µg/mL; ED50 (E. coli ML4707): 0.8 mg/kg; activity against gram-negative bacterial infections compared with the reference compounds (E. coli ML4707; systemic infection in mice, result in words): greater activity against gram-negative bacterial infections than the reference compounds; ED50 (S. aureus Smith; challenge dose 5.5 x 10^5 cfu/mouse, n=5, read-out: ED50 against S. aureus Smith): 0.97 mg/kg; ED50 (S. aureus Smith; [16]): 0.9 mg/kg; MIC [12, 15]: 0.0125 µg/mL; MIC (B. fragilis 0558): 0.78 µg/mL
3 | CNCC1CCN(c2c(F)cc3c(=O)c(C(=O)O)cn(C4CC4)c3c2F)C1 (stereo not drawn) [Example 8, 1-Cyclopropyl-6,8-difluoro-1,4-dihydro-7-(3-methylaminomethyl-l-pyrrolidinyl)-4-oxo-3-quinolinecarboxylic acid hydrochloride] | 0.78 | 0.1 | 0.025 | 0.1 | 0.78 | 0.39 | 0.025 | 0.05 | 0.2 | 0.05 | 0.1 | 0.05 | 0.2 | 0.025 | 0.2 | 0.78 | 0.025 | 0.0125 | 0.05 | 1.56 | MIC (M. pneumoniae Mac.): 0.05 µg/mL; MIC [8, 13]: 0.05 µg/mL; ED50 (E. coli ML4707): 1.9 mg/kg; ED50 (S. aureus Smith; [16]): 1.1 mg/kg; MIC ([12]; Bacillus subtilis): 0.0125 µg/mL; MIC (B. fragilis 0558): 0.39 µg/mL
4 | CCn1cc(C(=O)O)c(=O)c2cc(F)c(N3CCNCC3)cc21 [NFLX, Norfloxacin, reference compound] | 0.78 (≈ 2.44 µM) | 0.1 (≈ 0.313 µM) | 0.78 (≈ 2.44 µM) | 3.13 (≈ 9.8 µM) | 25 (≈ 78.3 µM) | 1.56 (≈ 4.89 µM) | 0.025 (≈ 0.0783 µM) | 0.1 (≈ 0.313 µM) | 6.25 (≈ 19.6 µM) | 3.13 (≈ 9.8 µM) | 6.25 (≈ 19.6 µM) | 3.13 (≈ 9.8 µM) | 6.25 (≈ 19.6 µM) | 0.05 (≈ 0.157 µM) | 0.05 (≈ 0.157 µM) | 100 (≈ 313 µM) | 0.78 (≈ 2.44 µM) | 0.05 (≈ 0.157 µM) | 0.05 (≈ 0.157 µM) | 3.13 (≈ 9.8 µM) | MIC (M. pneumoniae Mac.): 3.13 µg/mL (≈ 9.8 µM); MIC ([8]; Streptococcus pyogenes): 1.56 µg/mL (≈ 4.89 µM); MIC (S. pneumoniae 3227; 3227): 12.5 µg/mL (≈ 39.1 µM); MIC [12, 15]: 0.1 µg/mL (≈ 0.313 µM); MIC (B. fragilis 0558): 25 µg/mL (≈ 78.3 µM)

Reference: EP0183129A1, “Quinolonecarboxylic acid derivatives” (KYORIN PHARMACEUTICAL CO., LTD., priority 1984, dated 1986)
